Data published in BindingDB's records for doi:10.1021/jm970524i (Dupont Pharmaceuticals, 1998).

Biological target: T1, Dimer of Gag-Pol polyprotein [489-587] (Human immunodeficiency virus 1, UniProt P04585)
T1 construct: 489-587
Assay: Protease Inhibition Assay
Method: Inhibition of HIV protease was measured by assay of the cleavage of a fluorescent peptide substrate. The fluorescent product (2-aminobenzoyl-Ala-Thr-His-Gln-Val-Tyr) was separated from the fluorescent substrate by anion-exchange HPLC on a Mono-Q anion-exchange column (Pharmacia), and fluorescence was monitored at an excitation wavelength of 330 nm and an emission wavelength of 430 nm. Ki values for inhibitor binding were estimated at fixed concentrations of substrate and inhibitor from fractional activity measurements by use of the modified Michaelis-Menten equation.

| SMILES | Ki [nM] | Ki (pH 5.5, 37 °C) [nM] |
| --- | --- | --- |
| O=C1N(Cc2cccc(CO)c2)[C@H](Cc2ccccc2)[C@H](O)[C@@H](O)[C@@H](Cc2ccccc2)N1Cc1cccc(CO)c1 [(4R,5S,6S,7R)-4,7-dibenzyl-5,6-dihydroxy-1,3-bis({[3-(hydroxymethyl)phenyl]methyl})-1,3-diazepan-2-one] | 0.14 |  |
| O=C1N(Cc2cccc([N+](=O)[O-])c2)[C@H](Cc2ccccc2)[C@H](O)[C@@H](O)[C@@H](Cc2ccccc2)N1Cc1cccc([N+](=O)[O-])c1 | 2.8 |  |
| NC(=O)NC1=N[C@H](Cc2ccccc2)[C@H](O)[C@@H](O)[C@@H](Cc2ccccc2)N1 [[4R-(4a,5a,6B,7B)]-[Hexahydro-5,6-dihydroxy-4,7-bis(phenylmethyl)-2H-1,3-diazepin-2-ylidene]urea] |  | > 12500 |
| O=C1N(Cc2cccc(O)c2)[C@H](Cc2ccccc2)[C@H](O)[C@@H](O)[C@@H](Cc2ccccc2)N1Cc1cccc(O)c1 | 0.12 |  |
| O=C1N(Cc2ccc(O)cc2)[C@H](Cc2ccccc2)[C@H](O)[C@@H](O)[C@@H](Cc2ccccc2)N1Cc1ccc(O)cc1 | 0.12 |  |
